From patent US11883526B2 (priority 2019, dated 2024)
Values joined by “and” are separate entries in the source; they are usually repeats but may differ in a detail not shown here. Equal entries are not always repeated. “Also recorded” adds a separate entry of the source. Structures can show the parent of a compound that is named as a salt. Where two headings read alike, the source gives them in different places. Marks after values point to notes of the source that are not given here.

Assays:
[1] = Excerpt: This example provides an LC-MS/MS method for the determination of ketamine and norketamine in sodium heparin human plasma using ketamine-d4 and norketamine-d4 as the respective internal standards (IS).
[2] = tested on: adult female Sprague Dawley rats; details: 3 hours after a single intraperitoneal injection; cited from earlier work
[3] = tested on: female Sprague-Dawley rats; assay: Single dose neurotoxicity study: mortality, clinical observations, body weight; format: in vivo, rat; details: for Clinical observation incidence: Abnormal respiration / Clinical observation incidence: Ataxia / Clinical observation incidence: Catalepsy / Clinical observation incidence: Chromodacryorrhea / Clinical observation incidence: Decreased general activity / Clinical observation incidence: Decubitus / Clinical observation incidence: Increased general activity / Clinical observation incidence: Narrowed palpebral fissure / Clinical observation incidence: Piloerection / Clinical observation incidence: Salivation (out of normal) / Clinical observation incidence: audible respiration / Clinical observation incidence: bradypnoea: single dose
Description: The injection volume was 5 mL/kg.
(§1) Body weight and body weight gain were measured daily.

[4] = tested on: female Sprague-Dawley rats; assay: Single dose neurotoxicity study: brain histopathology (neuronal necrosis in PCG/RSC); details: single dose up to 72 mg, 48 or 96 hours post-dose; hydrochloride
Description: In order to prepare for brain histopathology examination, all main study animals were perfused at necropsy. Prior to the perfusion, rats were anesthetized with isoflurane. After injection of 0.1 ml heparin, the blood of the rat was flushed out with a physiological saline solution by intraarterial insertion of a needle in the abdominal aorta. Thereafter the rat was perfused with glutaraldehyde 3% in potassium phosphate 0.09M and 1.4% sucrose. Due to logistic constraints at maximum 30 animals could undergo the whole-body perfusion procedure on a given day. Therefore, a staggered start of treatment was applied to all 5 groups of main study animals. Consequently, subgroups of 4 main study animals of the vehicle- and 36 and 54 mg-dosed groups, and 5 main study animals of the 72 mg-dosed and positive control groups, were dosed on 6 consecutive days, respectively.
The vehicle control, positive control, and esketamine HCl-dosed animals were sacrificed at either 48 hours (i.e., the first 12 or 15 rats per group) or 96 hours after the dose administration time (i.e., the last 12 or 15 rats per group). The brain tissue of the vehicle control-, positive control- and esketamine HCl-treated rats were processed at the same time and handled in the same way in batches of 4 or 5 animals per group.
Brain tissue was sampled and processed routinely. […]

[5] = tested on: female Sprague-Dawley rats; assay: 14-day repeated dose neurotoxicity study: mortality, clinical observations, body weight; format: in vivo, rat; details: for Clinical observation incidence: Abnormal respiration / Clinical observation incidence: Ataxia / Clinical observation incidence: Chromodacryorrhea / Clinical observation incidence: Decreased general activity / Clinical observation incidence: Decubitus / Clinical observation incidence: Increased general activity / Clinical observation incidence: Salivation (out of normal) / Clinical observation incidence: audible respiration / Clinical observation incidence: bradypnoea: 14 days
Description: as §1

[6] = Solubility of esketamine HCl; details: room temperature, pH 4.5, factor 1.15
Description: The clinical investigational product is an aqueous solution of the drug substance, esketamine hydrochloride (HCl). This formulation is administered intranasally to patients using a dual nasal spray device, which delivers one spray into each nostril. […] The formulation was stored at 37° C. for stability reasons until dosing.

[7] = tested on: female Sprague-Dawley rats; assay: 14-day repeated dose neurotoxicity study: brain histopathology (neuronal necrosis in PCG/RSC); details: up to 54 mg/day for 14 days, 48 hours after last instillation; hydrochloride
Description: Due to logistic constraints associated with the whole body perfusion procedure of the animals at necropsy, a staggered start was applied to the study. Consequently, all 5 groups of main study animals were divided into three subgroups of 4 animals each. For each of these subgroups treatment started on a different day. The perfusion procedure is the is the same as described for the single dose study.
All vehicle- and esketamine HCl-treated animals were sacrificed at 48 hours after the last instillation. […] The brain tissue of the vehicle control-, positive control- and esketamine HCl-treated rats were processed at the same time and handled in the same way in batches of 4 animals per group.
Brain tissue was sampled and processed routinely. The trimmed and embedded tissue was sectioned and stained with hematoxylin-eosin (HE). Histoprocessing and staining were carried out in three batches of 4 animals per group (each batch thus containing 4 animals from vehicle control-, positive control- and the three esketamine HCl-treated groups).
Histopathological examination was performed on 7 levels of brain tissue according to Bolon (2013. Toxicol. Pathol. 41(7), 1028-1048) from the vehicle control-, positive control-, and high dose esketamine HCl-treated groups in the single dose study, and in all groups in the repeated dose study.
The microscopic finding of neuronal necrosis in the PCG/RSC of the brain was graded unilaterally according to the number of necrotic neurons observed over the total length of the PCG/RSC structure visible in the tissue section (usually around 3-5 mm) utilizing the following criteria:

CNC1(c2ccccc2Cl)CCCCC1=O (racemic) [ketamine, reference compound]
QC sample freeze/thaw stability ([1]; freeze (−20° C.)/thaw (ice-water bath)): 3 freeze (−20° C.)/thaw (ice-water bath) cycles
QC sample freeze/thaw stability ([1]; freeze (−20° C.)/thaw (room temperature)): 3 freeze (−20° C.)/thaw (room temperature) cycles
QC sample long-term storage stability ([1]; human plasma QC sample at −20° C.): 1552 days at −20 °C
QC sample bench-top stability ([1]; human plasma QC sample, room temperature): 68.5 hours at room temp
Stock solution stability (spike solutions) ([1]; ketamine/norketamine spike solutions at −20° C.): 610 days at −20 °C for ketamine/norketamine spike solutions
Processed sample stability ([1]; room temperature): 146.5 hours at room temperature
Whole Blood Stability ([1]; room temperature and ice-water bath (0-4° C.)): 120 minutes at room temperature and in an ice-water bath (0-4° C.)
Stock solution stability ([1]; stock solutions at room temperature under white light): 6 h
Stock solution stability ([1]; stock solutions at −20° C.): 15100 h
ED50 for induction of neuronal vacuolation in the PCG/RSC [2]: 47.5 mg/kg body weight

CN[C@]1(c2ccccc2Cl)CCCCC1=O [esketamine HCl, (S)-2-(2-chlorophenyl)-2-(methylamino)cyclohexanone hydrochloride]
duration of decreased activity, decubitus, bradypnea, catalepsy (anesthesia) after last instillation ([3]; 36 mg): 15 to 30 min
duration of ataxia after decreased activity had subsided ([3]; 54 mg, hydrochloride): 1.5 to 3 h and 1 to 3 h
duration of ataxia after decreased activity had subsided ([3]; 72 mg): ≥ 3 h
Clinical observation incidence: Abnormal respiration ([3]; 36 mg intranasal): 22/24 ***
Clinical observation incidence: Ataxia ([3]; 36 mg intranasal): 24/24 ***
Clinical observation incidence: Catalepsy ([3]; 36 mg intranasal): 20/24 ***
Clinical observation incidence: Chromodacryorrhea ([3]; 36 mg intranasal): 0/24
Clinical observation incidence: Decreased general activity ([3]; 36 mg intranasal): 23/24 ***
Clinical observation incidence: Decubitus ([3]; 36 mg intranasal): 23/24 ***
Clinical observation incidence: Increased general activity ([3]; 36 mg intranasal): 24/24 ***
Clinical observation incidence: Narrowed palpebral fissure ([3]; 36 mg intranasal): 7/24**
Clinical observation incidence: Piloerection ([3]; 36 mg intranasal): 0/24
Clinical observation incidence: Salivation (out of normal) ([3]; 36 mg intranasal): 23/24 ***
Clinical observation incidence: audible respiration ([3]; 36 mg intranasal): 10/24 ***
Clinical observation incidence: bradypnoea ([3]; 36 mg intranasal): 22/24 ***
Clinical observation incidence: Abnormal respiration ([3]; 54 mg intranasal): 22/24 ***
Clinical observation incidence: Ataxia ([3]; 54 mg intranasal): 24/24 ***
Clinical observation incidence: Catalepsy ([3]; 54 mg intranasal): 23/24 ***
Clinical observation incidence: Chromodacryorrhea ([3]; 54 mg intranasal): 0/24
Clinical observation incidence: Decreased general activity ([3]; 54 mg intranasal): 23/24 ***
Clinical observation incidence: Decubitus ([3]; 54 mg intranasal): 23/24 ***
Clinical observation incidence: Increased general activity ([3]; 54 mg intranasal): 24/24 ***
Clinical observation incidence: Narrowed palpebral fissure ([3]; 54 mg intranasal): 10/24 ***
Clinical observation incidence: Piloerection ([3]; 54 mg intranasal): 0/24
Clinical observation incidence: Salivation (out of normal) ([3]; 54 mg intranasal): 24/24 ***
Clinical observation incidence: audible respiration ([3]; 54 mg intranasal): 3/24
Clinical observation incidence: bradypnoea ([3]; 54 mg intranasal): 21/24 ***
Clinical observation incidence: Abnormal respiration ([3]; 72 mg intranasal): 30/30 ***
Clinical observation incidence: Catalepsy ([3]; 72 mg intranasal): 30/30 ***
Clinical observation incidence: Chromodacryorrhea ([3]; 72 mg intranasal): 0/30
Clinical observation incidence: Decreased general activity ([3]; 72 mg intranasal): 30/30 ***
Clinical observation incidence: Decubitus ([3]; 72 mg intranasal): 30/30 ***
Clinical observation incidence: Increased general activity ([3]; 72 mg intranasal): 29/30 ***
Clinical observation incidence: Narrowed palpebral fissure ([3]; 72 mg intranasal): 22/30 ***
Clinical observation incidence: Piloerection ([3]; 72 mg intranasal): 0/30
Clinical observation incidence: Salivation (out of normal) ([3]; 72 mg intranasal): 29/30 ***
Clinical observation incidence: audible respiration ([3]; 72 mg intranasal): 2/30
Clinical observation incidence: bradypnoea ([3]; 72 mg intranasal): 30/30 ***
mortality ([3]; single intranasal dose 72 mg, within 30 minutes): two main study animals and two satellite TK animals died
mortality ([3]; single intranasal dose up to 54 mg): No test article related mortality
histopathological lesions / neuronal necrosis in the brain [4]: no morphological evidence of neuronal degeneration; also recorded: absent; also recorded: No signs of neuronal necrosis; also recorded: no neuropathological lesions
Clinical observation incidence: Abnormal respiration ([5]; 18 mg/day intranasal): 2/12
Clinical observation incidence: Ataxia ([5]; 18 mg/day intranasal): 12/12***
Clinical observation incidence: Chromodacryorrhea ([5]; 18 mg/day intranasal): 0/12
Clinical observation incidence: Decreased general activity ([5]; 18 mg/day intranasal): 5/12
Clinical observation incidence: Decubitus ([5]; 18 mg/day intranasal): 0/12
Clinical observation incidence: Increased general activity ([5]; 18 mg/day intranasal): 12/12***
Clinical observation incidence: Salivation (out of normal) ([5]; 18 mg/day intranasal): 12/12***
Clinical observation incidence: audible respiration ([5]; 18 mg/day intranasal): 2/12
Clinical observation incidence: bradypnoea ([5]; 18 mg/day intranasal): 0/12
Clinical observation incidence: Abnormal respiration ([5]; 36 mg/day intranasal): 11/12***
Clinical observation incidence: Ataxia ([5]; 36 mg/day intranasal): 12/12***
Clinical observation incidence: Chromodacryorrhea ([5]; 36 mg/day intranasal): 0/12
Clinical observation incidence: Decreased general activity ([5]; 36 mg/day intranasal): 12/12***
Clinical observation incidence: Decubitus ([5]; 36 mg/day intranasal): 2/12
Clinical observation incidence: Increased general activity ([5]; 36 mg/day intranasal): 12/12***
Clinical observation incidence: Salivation (out of normal) ([5]; 36 mg/day intranasal): 12/12***
Clinical observation incidence: audible respiration ([5]; 36 mg/day intranasal): 6/12**
Clinical observation incidence: bradypnoea ([5]; 36 mg/day intranasal): 11/12***
Clinical observation incidence: Abnormal respiration ([5]; 54 mg/day intranasal): 12/12***
Clinical observation incidence: Ataxia ([5]; 54 mg/day intranasal): 12/12***
Clinical observation incidence: Chromodacryorrhea ([5]; 54 mg/day intranasal): 0/12
Clinical observation incidence: Decreased general activity ([5]; 54 mg/day intranasal): 12/12***
Clinical observation incidence: Decubitus ([5]; 54 mg/day intranasal): 8/12***
Clinical observation incidence: Increased general activity ([5]; 54 mg/day intranasal): 12/12***
Clinical observation incidence: Salivation (out of normal) ([5]; 54 mg/day intranasal): 12/12***
Clinical observation incidence: audible respiration ([5]; 54 mg/day intranasal): 6/12**
Clinical observation incidence: bradypnoea ([5]; 54 mg/day intranasal): 12/12***
mortality ([5]; up to 54 mg/day for 14 days): No test article related mortality
maximum solubility expressed as base [6]: 180 mg esketamine base/mL
histopathological lesions / neuronal necrosis in the brain [7]: absence of neuronal necrosis; also recorded: No histopathological lesions
